Source: ChEMBL document CHEMBL4602617, “Discovery and optimization of heteroaryl piperazines as potent and selective PI3Kδ inhibitors” (Bioorg Med Chem Lett, 2020)

Columns and labels:
[1] = Volume of drug distribution in dog at 0.5 mg/kg, iv or 1 mg/kg, po; type: ADME, organism-based, Canis lupus familiaris; details: in vivo
[2] = biological target: Cyclin-dependent kinase 1/cyclin B1 (Homo sapiens, UniProt P06493); experiment: Inhibition of recombinant full length human His-tagged CDK1/CyclinB expressed in baculovirus expression system using serine/threonine-18 peptide as substrate incubated for 60 mins in presence of ATP by Z'-LYTE assay
[3] = biological target: Calcium/calmodulin-dependent protein kinase type 1D (Homo sapiens, UniProt Q8IU85); experiment: Inhibition of recombinant full length human His-tagged CAMK1delta expressed in baculovirus expression system using serine/threonine-25 peptide as substrate incubated for 60 mins in presence of ATP by Z'-LYTE assay
[4] = biological target: AMP-activated protein kinase (AMPK) alpha-1/beta-1/gamma-1 (Homo sapiens, UniProt P54619+Q13131+Q9Y478); experiment: Inhibition of recombinant full length GST/His-tagged human AMPK alpha1/beta1/gamma1 expressed in insect cells using Ser/Thr-23 peptide as substrate incubated for 60 mins in presence of ATP by Z'-LYTE assay
[5] = biological target: Mitogen-activated protein kinase kinase kinase kinase 5 (Homo sapiens, UniProt Q9Y4K4); experiment: Inhibition of recombinant full length human GST-tagged KHS1 expressed in baculovirus expression system using serine/threonine-7 peptide as substrate incubated for 60 mins in presence of ATP by Z'-LYTE assay
[6] = biological target: Retinoic acid receptor RXR-alpha (Homo sapiens) (UniProt P19793); experiment: Displacement of [3H]-9-cis-Retinoic acid from human recombinant RXRalpha receptor LBD domain expressed in Escherichia coli at 10 uM measured after 16 hrs by radiometric scintillation analysis relative to control
[7] = biological target: Prostaglandin E2 receptor EP3 subtype (Homo sapiens) (UniProt P43115); experiment: Inhibition of human prostanoid EP3 receptor at 10 uM relative to control
[8] = biological target: Nociceptin receptor (Homo sapiens) (UniProt P41146); experiment: Displacement of [3H]nociceptin from full length human recombinant ORL1 receptor expressed in HEK293 cells at 10 uM measured after 60 mins by radiometric scintillation analysis relative to control; type: cell-based
[9] = biological target: Acetylcholine receptor subunit alpha (Homo sapiens) (UniProt P02708); experiment: Displacement of [125I]-alpha-Bungarotoxin from full length nAChR alpha1 receptor in human RD cell membranes at 10 uM measured after 120 mins by radiometric scintillation analysis relative to control
[10] = biological target: Histamine H2 receptor (Homo sapiens) (UniProt P25021); experiment: Displacement of [125I]aminopotentidine from full length human recombinant histamine H2 receptor expressed in CHO-K1 cells at 10 uM measured after 120 mins by radiometric scintillation analysis relative to control; type: cell-based
[11] = biological target: Acetylcholinesterase (Homo sapiens) (UniProt P22303); experiment: Inhibition of human recombinant acetylcholine esterase expressed in HEK293 cells at 10 uM using acetylcholine as substrate preincubated for 15 mins followed by substrate addition measured after 20 mins by spectrophotometric analysis relative to control
[12] = biological target: Serine/threonine-protein kinase Chk1 (Homo sapiens, UniProt O14757); experiment: Inhibition of recombinant human full-length His-tagged CHEK1 expressed in baculovirus expression system using FRET-labeled Ser/Thr 19 peptide as substrate measured after 1 hr in presence of ATP by Z'-lyte assay
[13] = biological target: Casein kinase I isoform delta (Homo sapiens, UniProt P48730); experiment: Inhibition of recombinant human full-length GST-tagged CSNK1D expressed in baculovirus expression system using FRET-labeled Ser/Thr 11 peptide as substrate measured after 1 hr in presence of ATP by Z'-lyte assay
[14] = biological target: Casein kinase I isoform gamma-3 (Homo sapiens, UniProt Q9Y6M4); experiment: Inhibition of recombinant human full-length GST-tagged CSNK1G3 expressed in baculovirus expression system using FRET-labeled Ser/Thr 05 peptide as substrate measured after 1 hr in presence of ATP by Z'-lyte assay
[15] = biological target: Epidermal growth factor receptor (Homo sapiens, UniProt P00533); experiment: Inhibition of recombinant human GST-tagged EGFR expressed in baculovirus expression system using tyr-04 peptide as substrate incubated for 60 mins in presence of ATP by Z'-LYTE assay
[16] = biological target: Fibroblast growth factor receptor 1 (Homo sapiens, UniProt P11362); experiment: Inhibition of recombinant His-tagged human FGFR1 cytoplasmic domain expressed in baculovirus expression system using Tyr 04 peptide as substrate after 1 hr in presence of ATP by Z'-LYTE assay
[17] = biological target: Homeodomain-interacting protein kinase 1 (Homo sapiens, UniProt Q86Z02); experiment: Inhibition of recombinant human GST-tagged HIPK1 catalytic domain expressed in baculovirus expression system using serine/threonine-9 peptide as substrate incubated for 60 mins in presence of ATP by Z'-LYTE assay
[18] = biological target: Insulin receptor (Homo sapiens, UniProt P06213); experiment: Inhibition of recombinant human GST-tagged INSR cytoplasmic domain expressed in baculovirus expression system using tyrosine-1 peptide as substrate incubated for 60 mins in presence of ATP by Z'-LYTE assay
[19] = biological target: Megakaryocyte-associated tyrosine-protein kinase (Homo sapiens, UniProt P42679); experiment: Inhibition of recombinant full length human His-tagged MATK expressed in Escherichia coli using tyr-01 peptide as substrate incubated for 60 mins in presence of ATP by Z'-LYTE assay
[20] = biological target: Maternal embryonic leucine zipper kinase (Homo sapiens, UniProt Q14680); experiment: Inhibition of recombinant human GST-tagged MELK catalytic domain expressed in baculovirus expression system using serine/threonine-17 peptide as substrate incubated for 60 mins in presence of ATP by Z'-LYTE assay
[21] = biological target: Hepatocyte growth factor receptor (Homo sapiens, UniProt P08581, M1250T); experiment: Inhibition of human recombinant His-tagged cMET M1250T mutant cytoplasmic domain expressed in baculovirus expression system using tyrosine 6 peptide as substrate after 60 mins in presence of ATP FRET based Z'-LYTE assay
[22] = biological target: MAP kinase-interacting serine/threonine-protein kinase 1 (Homo sapiens, UniProt Q9BUB5); experiment: Inhibition of recombinant full length human GST-tagged MKNK1 expressed in insect cells using serine/threonine-7 peptide as substrate incubated for 60 mins in presence of ATP by Z'-LYTE assay
[23] = biological target: NUAK family SNF1-like kinase 1 (Homo sapiens, UniProt O60285); experiment: Inhibition of recombinant full length His-tagged human NUAK1 expressed in baculovirus expression system using CHKtide as substrate after 1 hr in presence of ATP by Adapta assay
[24] = biological target: Serine/threonine-protein kinase Sgk3 (Homo sapiens, UniProt Q96BR1); experiment: Inhibition of recombinant human GST-tagged SGK3 catalytic domain (87 to 496 residues) expressed in baculovirus expression system using serine/threonine-6 peptide as substrate incubated for 60 mins in presence of ATP by Z'-LYTE assay
[25] = biological target: Sphingosine kinase 2 (Homo sapiens, UniProt Q9NRA0); experiment: Inhibition of recombinant full length GST-tagged human SPHK2 expressed in baculovirus expression system using Sphingosine lipid as substrate in presence of ATP after 1 hr by Adapta assay
Sequence of Sphingosine kinase 2 (Q9NRA0 whole entry): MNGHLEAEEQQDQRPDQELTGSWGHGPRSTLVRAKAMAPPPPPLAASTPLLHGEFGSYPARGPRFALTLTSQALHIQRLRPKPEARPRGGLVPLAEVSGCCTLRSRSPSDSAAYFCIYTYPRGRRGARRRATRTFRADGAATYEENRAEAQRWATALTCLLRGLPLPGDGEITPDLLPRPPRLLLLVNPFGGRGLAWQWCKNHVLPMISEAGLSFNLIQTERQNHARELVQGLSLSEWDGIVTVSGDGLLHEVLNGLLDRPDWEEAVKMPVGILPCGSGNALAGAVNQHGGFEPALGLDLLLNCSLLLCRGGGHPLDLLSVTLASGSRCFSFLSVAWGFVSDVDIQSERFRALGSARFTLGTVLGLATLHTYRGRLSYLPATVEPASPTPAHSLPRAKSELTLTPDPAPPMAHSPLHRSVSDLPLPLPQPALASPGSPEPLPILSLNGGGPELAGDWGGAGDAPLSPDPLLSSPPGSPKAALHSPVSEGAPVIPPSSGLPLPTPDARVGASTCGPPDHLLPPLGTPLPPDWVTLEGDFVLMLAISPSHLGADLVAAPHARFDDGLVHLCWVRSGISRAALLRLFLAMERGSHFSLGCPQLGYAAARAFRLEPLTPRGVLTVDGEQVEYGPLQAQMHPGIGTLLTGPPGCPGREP

Sequence of Casein kinase I isoform delta (P48730 whole entry, canonical isoform): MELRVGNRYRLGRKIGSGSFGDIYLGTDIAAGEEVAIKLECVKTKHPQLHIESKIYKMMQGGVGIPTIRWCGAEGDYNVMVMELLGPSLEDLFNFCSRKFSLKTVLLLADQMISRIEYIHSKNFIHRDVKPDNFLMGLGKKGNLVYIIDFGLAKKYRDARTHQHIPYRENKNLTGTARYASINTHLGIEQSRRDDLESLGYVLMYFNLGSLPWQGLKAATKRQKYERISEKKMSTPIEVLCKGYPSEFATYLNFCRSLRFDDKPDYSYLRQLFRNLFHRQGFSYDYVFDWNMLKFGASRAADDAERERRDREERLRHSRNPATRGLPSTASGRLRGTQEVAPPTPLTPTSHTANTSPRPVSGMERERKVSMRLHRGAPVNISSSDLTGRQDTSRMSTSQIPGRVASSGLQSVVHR
Sequence of Prostaglandin E2 receptor EP3 subtype (Homo sapiens) (P43115 whole entry): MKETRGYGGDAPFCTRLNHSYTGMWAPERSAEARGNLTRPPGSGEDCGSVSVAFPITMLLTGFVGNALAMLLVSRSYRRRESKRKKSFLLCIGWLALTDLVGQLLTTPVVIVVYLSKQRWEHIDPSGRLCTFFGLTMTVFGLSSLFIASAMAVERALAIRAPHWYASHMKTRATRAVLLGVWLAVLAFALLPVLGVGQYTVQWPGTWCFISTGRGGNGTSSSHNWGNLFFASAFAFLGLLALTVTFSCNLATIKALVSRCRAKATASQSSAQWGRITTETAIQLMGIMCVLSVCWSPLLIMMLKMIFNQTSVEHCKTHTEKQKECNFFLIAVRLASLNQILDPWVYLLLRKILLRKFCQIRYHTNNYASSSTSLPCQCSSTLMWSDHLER
Sequence of AMP-activated protein kinase (AMPK) alpha-1/beta-1/gamma-1 (P54619 whole entry): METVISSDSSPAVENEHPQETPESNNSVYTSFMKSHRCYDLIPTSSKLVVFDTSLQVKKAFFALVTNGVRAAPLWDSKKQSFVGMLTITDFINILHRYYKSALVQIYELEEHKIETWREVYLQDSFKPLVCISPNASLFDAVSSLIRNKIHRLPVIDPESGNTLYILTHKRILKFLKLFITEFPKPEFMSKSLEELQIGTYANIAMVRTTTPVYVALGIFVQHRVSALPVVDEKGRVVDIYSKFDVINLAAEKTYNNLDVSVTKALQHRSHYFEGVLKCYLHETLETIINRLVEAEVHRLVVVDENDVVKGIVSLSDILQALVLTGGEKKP
Sequence of AMP-activated protein kinase (AMPK) alpha-1/beta-1/gamma-1 (Q9Y478 whole entry): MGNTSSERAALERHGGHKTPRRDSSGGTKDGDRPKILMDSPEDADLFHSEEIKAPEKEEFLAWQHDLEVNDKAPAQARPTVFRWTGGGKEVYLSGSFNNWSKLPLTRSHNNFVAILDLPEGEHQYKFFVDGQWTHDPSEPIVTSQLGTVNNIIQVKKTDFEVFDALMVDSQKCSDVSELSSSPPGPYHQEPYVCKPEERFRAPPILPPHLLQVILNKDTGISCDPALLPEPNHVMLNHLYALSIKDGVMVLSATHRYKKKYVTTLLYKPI
Sequence of AMP-activated protein kinase (AMPK) alpha-1/beta-1/gamma-1 (Q13131 whole entry): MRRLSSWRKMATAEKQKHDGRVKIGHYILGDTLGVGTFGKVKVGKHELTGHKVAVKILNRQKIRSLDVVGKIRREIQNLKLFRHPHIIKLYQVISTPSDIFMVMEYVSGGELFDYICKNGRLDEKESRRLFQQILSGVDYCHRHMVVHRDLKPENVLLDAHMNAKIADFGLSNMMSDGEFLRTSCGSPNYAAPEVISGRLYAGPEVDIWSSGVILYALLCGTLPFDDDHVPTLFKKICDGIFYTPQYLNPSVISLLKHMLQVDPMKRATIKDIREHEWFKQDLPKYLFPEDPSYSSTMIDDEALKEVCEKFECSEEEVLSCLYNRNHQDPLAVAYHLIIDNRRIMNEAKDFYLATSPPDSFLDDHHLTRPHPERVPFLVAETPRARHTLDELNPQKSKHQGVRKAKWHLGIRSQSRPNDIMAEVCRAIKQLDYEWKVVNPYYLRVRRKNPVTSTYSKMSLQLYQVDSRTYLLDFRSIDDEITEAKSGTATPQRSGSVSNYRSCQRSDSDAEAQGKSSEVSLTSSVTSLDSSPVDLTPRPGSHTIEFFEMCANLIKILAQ
Sequence of Maternal embryonic leucine zipper kinase (Q14680 whole entry, the tested form may be a part): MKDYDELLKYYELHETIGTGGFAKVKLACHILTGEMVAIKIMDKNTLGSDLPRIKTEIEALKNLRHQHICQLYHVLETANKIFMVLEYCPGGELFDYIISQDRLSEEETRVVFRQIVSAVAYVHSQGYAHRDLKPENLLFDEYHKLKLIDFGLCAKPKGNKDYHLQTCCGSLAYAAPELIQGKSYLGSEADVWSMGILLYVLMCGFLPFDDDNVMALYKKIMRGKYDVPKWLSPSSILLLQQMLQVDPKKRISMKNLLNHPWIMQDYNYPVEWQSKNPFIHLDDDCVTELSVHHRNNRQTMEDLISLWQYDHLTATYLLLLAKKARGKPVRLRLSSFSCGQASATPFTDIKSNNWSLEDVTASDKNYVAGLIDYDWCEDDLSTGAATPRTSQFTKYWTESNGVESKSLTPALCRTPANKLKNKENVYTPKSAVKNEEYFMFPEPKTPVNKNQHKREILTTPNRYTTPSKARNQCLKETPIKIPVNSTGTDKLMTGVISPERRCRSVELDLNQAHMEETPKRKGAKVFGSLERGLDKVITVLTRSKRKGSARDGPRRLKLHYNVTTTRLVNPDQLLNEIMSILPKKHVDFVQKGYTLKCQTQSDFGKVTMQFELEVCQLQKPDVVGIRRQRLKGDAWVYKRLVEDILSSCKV
Sequence of Mitogen-activated protein kinase kinase kinase kinase 5 (Q9Y4K4 whole entry, the tested form may be a part): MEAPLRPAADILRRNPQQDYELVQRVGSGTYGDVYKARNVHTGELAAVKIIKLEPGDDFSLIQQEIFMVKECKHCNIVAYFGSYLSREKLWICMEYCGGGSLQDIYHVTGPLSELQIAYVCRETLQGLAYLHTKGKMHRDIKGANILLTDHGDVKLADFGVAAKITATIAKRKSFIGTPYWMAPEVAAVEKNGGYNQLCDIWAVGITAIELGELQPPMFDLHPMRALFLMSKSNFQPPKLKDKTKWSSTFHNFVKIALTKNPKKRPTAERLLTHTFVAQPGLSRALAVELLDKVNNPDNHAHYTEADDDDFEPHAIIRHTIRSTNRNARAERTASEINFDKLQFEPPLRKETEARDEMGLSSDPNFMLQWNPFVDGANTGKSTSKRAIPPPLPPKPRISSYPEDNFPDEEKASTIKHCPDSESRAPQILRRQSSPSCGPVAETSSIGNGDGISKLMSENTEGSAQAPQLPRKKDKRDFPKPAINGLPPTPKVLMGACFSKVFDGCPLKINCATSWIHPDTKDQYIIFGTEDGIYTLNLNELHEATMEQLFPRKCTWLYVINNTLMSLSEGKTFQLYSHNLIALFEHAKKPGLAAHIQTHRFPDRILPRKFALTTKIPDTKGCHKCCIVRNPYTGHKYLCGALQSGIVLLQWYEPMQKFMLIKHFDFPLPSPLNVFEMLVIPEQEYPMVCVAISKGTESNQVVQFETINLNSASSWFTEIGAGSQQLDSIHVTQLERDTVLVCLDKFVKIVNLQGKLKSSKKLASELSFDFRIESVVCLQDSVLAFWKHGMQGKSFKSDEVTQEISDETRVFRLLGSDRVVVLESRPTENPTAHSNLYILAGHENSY
Sequence of Casein kinase I isoform gamma-3 (Q9Y6M4 whole entry, canonical isoform): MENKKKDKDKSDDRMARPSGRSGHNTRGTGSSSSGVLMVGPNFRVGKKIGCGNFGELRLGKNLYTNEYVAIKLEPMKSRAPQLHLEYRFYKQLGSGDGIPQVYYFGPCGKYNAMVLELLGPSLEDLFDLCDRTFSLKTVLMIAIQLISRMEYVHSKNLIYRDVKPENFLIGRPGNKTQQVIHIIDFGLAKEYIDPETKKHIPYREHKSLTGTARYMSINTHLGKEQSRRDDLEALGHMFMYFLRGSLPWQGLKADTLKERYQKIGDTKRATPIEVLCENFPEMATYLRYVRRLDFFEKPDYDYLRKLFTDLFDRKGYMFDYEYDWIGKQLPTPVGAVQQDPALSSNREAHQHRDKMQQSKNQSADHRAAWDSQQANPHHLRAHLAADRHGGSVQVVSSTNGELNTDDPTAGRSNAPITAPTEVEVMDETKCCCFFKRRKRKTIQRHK
Sequence of Calcium/calmodulin-dependent protein kinase type 1D (Q8IU85 whole entry): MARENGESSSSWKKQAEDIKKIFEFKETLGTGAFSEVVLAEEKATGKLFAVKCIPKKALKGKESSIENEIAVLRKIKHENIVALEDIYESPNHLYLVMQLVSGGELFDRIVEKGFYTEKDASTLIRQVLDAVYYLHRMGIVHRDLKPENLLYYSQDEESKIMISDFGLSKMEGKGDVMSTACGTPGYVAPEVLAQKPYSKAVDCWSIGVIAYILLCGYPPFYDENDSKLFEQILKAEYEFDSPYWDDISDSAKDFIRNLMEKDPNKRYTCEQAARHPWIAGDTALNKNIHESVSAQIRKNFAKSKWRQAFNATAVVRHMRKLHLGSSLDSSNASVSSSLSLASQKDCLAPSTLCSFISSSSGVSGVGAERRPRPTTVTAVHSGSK

C[C@@H]1C[C@H]1C(=O)N1CCN(c2cnc(C#N)c(-c3cnn(C)c3)n2)C[C@H]1C
Vd [1]: 1.1 L/kg | IC50 [2]: > 100 µM | IC50 [3]: > 100 µM | IC50 [4]: > 100 µM | IC50 [5]: 30.4 µM | inhibition [6]: 8% | inhibition [7]: 7% | inhibition [8]: -1% | inhibition [9]: 5% | inhibition [10]: 6% | inhibition [11]: 37% | IC50 [12]: > 100 µM | IC50 [13]: > 100 µM | IC50 [14]: > 100 µM | IC50 [15]: > 100 µM | IC50 [16]: > 100 µM | IC50 [17]: > 100 µM | IC50 [18]: > 100 µM | IC50 [19]: > 100 µM | IC50 [20]: > 100 µM | IC50 [21]: > 100 µM | IC50 [22]: > 100 µM | IC50 [23]: > 100 µM | IC50 [24]: > 100 µM | IC50 [25]: > 100 µM
